Source: patent publication US20200163984A1, “USE OF ISOVALERYL SPIRAMYCIN I, II AND/OR III IN MANUFACTURING MEDICAMENT FOR TREATING AND/OR PREVENTING TUMOR, AND MEDICAMENT” (SHENYANG FUYANG PHARMACEUTICAL TECHNOLOGY CO., LTD., priority 2017, published 2020)

How the values were obtained:
[1] = test system: transplanted tumor of human lymphoma cell U937; test: U937 transplanted tumor in nude mice; details: for Tumor Volume (mm3) (d 1): d1
Description: (§1) U937 cells in a logarithmic growth phase were taken and subjected to a trypan blue exclusion experiment showing that the cell viability was more than 95%, then the cells were subjected to trypsinization, centrifugation, and supernatant removal. Then cell concentration was adjusted to 1×10^7/ml with matrigel, then each nude mouse was inoculated subcutaneously with 0.2 ml of cells at its right armpit and recorded as the first day of inoculation. When the tumor grows to be greater than or equal to 100 mm^3, the mice were randomly divided into 11 groups with 6 mice in each group: a model group, a cyclophosphamide group, isovaleryl spiramycin I groups with doses of 25, 50 and 100 mg/kg, isovaleryl spiramycin II groups with doses of 25, 50 and 100 mg/kg, and isovaleryl spiramycin III groups with doses of 25, 50 and 100 mg/kg. Each group was continuously administered intragastrically for 30 days with a dose of 20 ml/kg. The mice were sacrificed the next day after drug withdrawal and the indicators were tested. The long diameter and short diameter of the tumor, and the body weight of each mouse were recorded every 3 days from drug administration to nude mouse sacrifice.
(§2) The body weight of the nude mice and the long diameter (a) and short diameter (b) of the transplanted tumor were measured every 3 days, and the tumor volume (v), relative tumor volume (RTV) and relative tumor proliferation rate (T/C) are calculated respectively according to the following formulas, wherein V=a×b^2/2; RTV=V/V0 (V0 is the tumor volume before administration, V is the tumor volume before sacrifice), and T/C (%)=treatment group RTV/model control group RTV×100%.
(§3) Each mouse was weighed and sacrificed. After the tumor was completely stripped off from the body of the mouse, the non-tumor tissues such as blood stains and fat were removed to weigh the tumor and calculate the tumor growth inhibition rate. The average tumor weight of each group of mice is used as an indicator of efficacy. Tumor growth inhibition rate (%)=(1−the average tumor weight of the treatment group/the average tumor weight of the model group)×100%.

[2] = test system: transplanted tumor of human cervical cancer cell HeLa; test: HeLa transplanted tumor in nude mice; details: for Tumor Volume (mm3) (d 1): d1
Description: as §1, with “HeLa” for “U937”
as §2, §3

[3] = test system: transplanted tumor of HT-29 cells; test: HT-29 transplanted tumor in nude mice; details: for Inhibition Rate (%) / Tumor Weight: HT-29 nude mice; for Tumor Volume (mm3) (d30): d 30
Description: as §1, with “Then” for “U937 cells in a logarithmic growth phase were taken and subjected to a trypan blue exclusion experiment showing that the cell viability was more than 95%, then the cells were subjected to trypsinization, centrifugation, and supernatant removal. Then”, “group:” for “group: a model group, a cyclophosphamide group,”
as §2, §3

[4] = U937, high dose (100 mg/kg in method) i.g. 30 days
[5] = U937, low dose (25 mg/kg in method) i.g. 30 days
[6] = U937, medium dose (50 mg/kg in method) i.g. 30 days
[7] = HeLa, high dose (100 mg/kg in method) i.g. 30 days
[8] = HeLa, low dose (25 mg/kg in method) i.g. 30 days
[9] = HeLa, medium dose (50 mg/kg in method) i.g. 30 days
[10] = HT-29, high dose (100 mg/kg in method) i.g. 30 days
[11] = HT-29, low dose (25 mg/kg in method) i.g. 30 days
[12] = HT-29, medium dose (50 mg/kg in method) i.g. 30 days

CO[C@@H]1[C@@H](O[C@@H]2O[C@H](C)[C@@H](O[C@H]3C[C@@](C)(O)[C@@H](OC(=O)CC(C)C)[C@H](C)O3)[C@H](N(C)C)[C@H]2O)[C@@H](CC=O)C[C@@H](C)[C@@H](O[C@H]2CC[C@H](N(C)C)[C@@H](C)O2)/C=C/C=C/C[C@@H](C)OC(=O)C[C@H]1O [Isovaleryl spiramycin I, isovaleryl spiramycin I]
Relative Tumor Proliferation Rate (T/C) [1, 4]: 35.25% | tumor growth inhibition rate [1, 4]: 65.03% | Relative Tumor Proliferation Rate (T/C) [1, 5]: 68.65% | tumor growth inhibition rate [1, 5]: 41.73% | tumor volume and relative tumor volume compared with the model group ([1]; U937, low, medium and high doses, P<0.05): significantly lower | Relative Tumor Proliferation Rate (T/C) [1, 6]: 39.74% | tumor growth inhibition rate [1, 6]: 50.73% | Inhibition Rate (%) ([1]; U937 nude mice, 12.5 mg/kg): 41.73% | Relative Tumor Proliferation Rate (T/C) ([1]; U937 nude mice, 12.5 mg/kg): 68.65% | Relative Tumor Volume (RTV) ([1]; U937 nude mice, 12.5 mg/kg): 11.70 ± 3.59 | Tumor Weight ([1]; U937 nude mice, 12.5 mg/kg): 1.13 ± 0.60 g | Tumor Volume (mm3) (d 1) ([1]; U937 nude mice, 12.5 mg/kg): 108.43 ± 6.49 mm3 | Tumor Volume (mm3) (d30) ([1]; U937 nude mice, 12.5 mg/kg): 1270.43 ± 435.28 mm3 | Inhibition Rate (%) ([1]; U937 nude mice, 25 mg/kg): 50.73% | Relative Tumor Proliferation Rate (T/C) ([1]; U937 nude mice, 25 mg/kg): 39.74% | Relative Tumor Volume (RTV) ([1]; U937 nude mice, 25 mg/kg): 6.77 ± 0.57 | Tumor Weight ([1]; U937 nude mice, 25 mg/kg): 0.95 ± 0.42 g | Tumor Volume (mm3) (d 1) ([1]; U937 nude mice, 25 mg/kg): 108.61 ± 9.06 mm3 | Tumor Volume (mm3) (d30) ([1]; U937 nude mice, 25 mg/kg): 734.22 ± 76.87 mm3 | Inhibition Rate (%) ([1]; U937 nude mice, 50 mg/kg): 65.03% | Relative Tumor Proliferation Rate (T/C) ([1]; U937 nude mice, 50 mg/kg): 35.25% | Relative Tumor Volume (RTV) ([1]; U937 nude mice, 50 mg/kg): 6.01 ± 2.26 | Tumor Weight ([1]; U937 nude mice, 50 mg/kg): 0.68 ± 0.09 g | Tumor Volume (mm3) (d 1) ([1]; U937 nude mice, 50 mg/kg): 109.98 ± 5.88 mm3 | Tumor Volume (mm3) (d30) ([1]; U937 nude mice, 50 mg/kg): 660.17 ± 37.49 mm3 | mouse weight compared with the model group ([1]; mouse, in vivo): no significant changes | Body Weight (g) (d1) ([1]; mouse, in vivo, 12.5 mg/kg): 21.19 ± 0.66 g | Body Weight (g) (d30) ([1]; mouse, in vivo, 12.5 mg/kg): 21.16 ± 0.74 g | Body Weight (g) (d1) ([1]; mouse, in vivo, 25 mg/kg): 21.28 ± 0.52 g | Body Weight (g) (d30) ([1]; mouse, in vivo, 25 mg/kg): 21.01 ± 0.68 g | Body Weight (g) (d1) ([1]; mouse, in vivo, 50 mg/kg): 20.64 ± 0.39 g | Body Weight (g) (d30) ([1]; mouse, in vivo, 50 mg/kg): 20.94 ± 0.77 g | Inhibition Rate (%) ([2]; HeLa nude mice, 12.5 mg/kg): 46.69% | Relative Tumor Proliferation Rate (T/C) ([2]; HeLa nude mice, 12.5 mg/kg): 69.18% | Relative Tumor Volume (RTV) ([2]; HeLa nude mice, 12.5 mg/kg): 11.47 ± 4.97 | Tumor Weight ([2]; HeLa nude mice, 12.5 mg/kg): 1.03 ± 0.59 g | Tumor Volume (mm3) (d 1) ([2]; HeLa nude mice, 12.5 mg/kg): 112.43 ± 6.87 mm3 | Tumor Volume (mm3) (d30) ([2]; HeLa nude mice, 12.5 mg/kg): 1287.77 ± 552.57 mm3 | Inhibition Rate (%) ([2]; HeLa nude mice, 25 mg/kg): 51.57% | Relative Tumor Proliferation Rate (T/C) ([2]; HeLa nude mice, 25 mg/kg): 39.57% | Relative Tumor Volume (RTV) ([2]; HeLa nude mice, 25 mg/kg): 6.56 ± 0.55 | Tumor Weight ([2]; HeLa nude mice, 25 mg/kg): 0.94 ± 0.48 g | Tumor Volume (mm3) (d 1) ([2]; HeLa nude mice, 25 mg/kg): 112.78 ± 9.72 mm3 | Tumor Volume (mm3) (d30) ([2]; HeLa nude mice, 25 mg/kg): 738.39 ± 75.32 mm3 | Inhibition Rate (%) ([2]; HeLa nude mice, 50 mg/kg): 65.55% | Relative Tumor Proliferation Rate (T/C) ([2]; HeLa nude mice, 50 mg/kg): 30.91% | Relative Tumor Volume (RTV) ([2]; HeLa nude mice, 50 mg/kg): 5.13 ± 0.68 | Tumor Weight ([2]; HeLa nude mice, 50 mg/kg): 0.67 ± 0.09 g | Tumor Volume (mm3) (d 1) ([2]; HeLa nude mice, 50 mg/kg): 114.15 ± 6.08 mm3 | Tumor Volume (mm3) (d30) ([2]; HeLa nude mice, 50 mg/kg): 588.18 ± 73.34 mm3 | Relative Tumor Proliferation Rate (T/C) [2, 7]: 30.91% | tumor growth inhibition rate [2, 7]: 65.55% | Relative Tumor Proliferation Rate (T/C) [2, 8]: 69.18% | tumor growth inhibition rate [2, 8]: 46.69% | tumor volume and relative tumor volume compared with the model group ([2]; HeLa, low, medium and high doses, P<0.05): significantly lower | Relative Tumor Proliferation Rate (T/C) [2, 9]: 39.57% | tumor growth inhibition rate [2, 9]: 51.57% | mouse weight compared with the model group ([2]; mouse, in vivo): no significant changes | Body Weight (g) (d1) ([2]; mouse, in vivo, 12.5 mg/kg): 20.72 ± 0.49 g | Body Weight (g) (d30) ([2]; mouse, in vivo, 12.5 mg/kg): 21.10 ± 0.68 g | Body Weight (g) (d1) ([2]; mouse, in vivo, 25 mg/kg): 21.07 ± 0.44 g | Body Weight (g) (d30) ([2]; mouse, in vivo, 25 mg/kg): 21.23 ± 0.73 g | Body Weight (g) (d1) ([2]; mouse, in vivo, 50 mg/kg): 20.82 ± 0.72 g | Body Weight (g) (d30) ([2]; mouse, in vivo, 50 mg/kg): 20.95 ± 0.45 g | Relative Tumor Proliferation Rate (T/C) [3, 10]: 29.11% | tumor growth inhibition rate [3, 10]: 70.14% | Relative Tumor Proliferation Rate (T/C) [3, 11]: 81.60% | tumor growth inhibition rate [3, 11]: 16.10% | tumor volume and relative tumor volume compared with the model group ([3]; HT-29, low, medium and high doses, P<0.05): significantly lower | Relative Tumor Proliferation Rate (T/C) [3, 12]: 49.22% | tumor growth inhibition rate [3, 12]: 49.72% | Inhibition Rate (%) ([3]; 25 mg/kg): 16.10% | Tumor Weight ([3]; 25 mg/kg): 1.97 ± 0.31 g | Inhibition Rate (%) ([3]; 50 mg/kg): 49.72% | Tumor Weight ([3]; 50 mg/kg): 1.18 ± 0.34 g | Inhibition Rate (%) ([3]; 100 mg/kg): 70.14% | Tumor Weight ([3]; 100 mg/kg): 0.70 ± 0.29 g | Relative Tumor Proliferation Rate (T/C) ([3]; dose 25 mg/kg): 81.60% | Relative Tumor Volume (RTV) ([3]; dose 25 mg/kg): 11.76 ± 4.03 | Tumor Volume (mm3) (d 1) ([3]; dose 25 mg/kg): 162.77 ± 38.95 mm3 | Tumor Volume (mm3) (d30) ([3]; dose 25 mg/kg): 1803.98 ± 271.55 mm3 | Relative Tumor Proliferation Rate (T/C) ([3]; dose 50 mg/kg): 49.22% | Relative Tumor Volume (RTV) ([3]; dose 50 mg/kg): 7.09 ± 1.47 | Tumor Volume (mm3) (d 1) ([3]; dose 50 mg/kg): 157.41 ± 37.31 mm3 | Tumor Volume (mm3) (d30) ([3]; dose 50 mg/kg): 1109.16 ± 320.27 mm3 | Relative Tumor Proliferation Rate (T/C) ([3]; dose 100 mg/kg): 29.11% | Relative Tumor Volume (RTV) ([3]; dose 100 mg/kg): 4.19 ± 2.23 | Tumor Volume (mm3) (d 1) ([3]; dose 100 mg/kg): 169.25 ± 35.39 mm3 | Tumor Volume (mm3) (d30) ([3]; dose 100 mg/kg): 648.93 ± 198.53 mm3 | mouse weight compared with the model group ([3]; mouse, in vivo): no significant changes | Body Weight (g) (d1) ([3]; mouse, in vivo, 25 mg/kg): 21.41 ± 1.41 g | Body Weight (g) (d30) ([3]; mouse, in vivo, 25 mg/kg): 20.98 ± 0.99 g | Body Weight (g) (d1) ([3]; mouse, in vivo, 50 mg/kg): 21.31 ± 1.53 g | Body Weight (g) (d30) ([3]; mouse, in vivo, 50 mg/kg): 20.56 ± 1.09 g | Body Weight (g) (d1) ([3]; mouse, in vivo, 100 mg/kg): 20.77 ± 1.13 g | Body Weight (g) (d30) ([3]; mouse, in vivo, 100 mg/kg): 21.19 ± 1.26 g
